# Earlier results, collected in patent publication US10300065B2, “Method of treating or prevention of atherothrombotic events in patients with history of myocardial infarction” (ASTRAZENECA AB, priority 2015, dated 2019).
# Test system: platelets
# Conditions: for most patients; cited from earlier work
compound,measurement,value
"CCCSc1nc(N[C@@H]2C[C@H]2c2ccc(F)c(F)c2)c2nnn([C@@H]3C[C@H](OCCO)[C@@H](O)[C@H]3O)c2n1 [Ticagrelor, (1S,2S,3R,5S)-3-[7-{[(1R,2S)-2-(3,4-difluorophenyl)cyclopropyl]amino}-5-(propylthio)-3H-[1,2,3]-triazolo[4,5-d]pyrimidin-3-yl]-5-(2-hydroxyethoxy)cyclopentane-1,2-diol]",onset of antiplatelet effect,≤ 2 h
